Results on five compounds are retold here after EP3156406A1, “CRYSTALLINE FORMS OF RIBOCICLIB FREE BASE” (ratiopharm GmbH, priority 2015, dated 2017).

Converted amounts (≈) assume the structure as drawn.

Broadly, the Solubility is the concentration that dissolves in the medium under given conditions. What is called solubility is the dissolved amount per volume that the medium holds. Read a low solubility as little dissolved substance.

Common to all, as to type: physicochemical
Data set [1] in a line: Long term stability of solid form at 40°C/75%r.h.
Data set [2] can be described thus: Solubility in aqueous solvents. The note with it: for Solubility: 37°C. On the procedure:
Approx. 340 mg (exactly weighed) test substance was weighed into a glass vial, followed by addition of 2.5 ml solvent. A stirring bar was added, the vial was fixed in a block heater at 37°C and the suspension was stirred with approx. 250 rpm. After 15 min and 1 h, samples were withdrawn, filtered through a 0.2 µm disposable filter, 50 µl of the clear filtrate were diluted with 950 µl DMSO and 2 µl thereof were analyzed by HPLC/UV.

Data set [3] is described as follows: Dynamic vapor sorption - stability of solid form. The settings on record: 25°C, humidity cycles 0-95% RH. On the procedure:
Vapour sorption experiments were performed in the instrument SPSx-1µ (Projekt Messtechnik, Ulm, Germany) at temperature of 25°C and the humidity cycles as shown below. Humidity cycle conditions: [table]

Consider `CN(C)C(=O)c1cc2cnc(Nc3ccc(N4CCNCC4)cn3)nc2n1C1CCCC1` [Form 1, 7-cyclopentyl-N,N-dimethyl-2-((5-(piperazin-1-yl)pyridin-2-yl)amino)-7H-pyrrolo[2,3-d]pyrimidine-6-carboxamide], for which the “Long term stability at 40°C/75%r.h. (4 weeks)” value in data set [1] is on record as “stable”. Moreover, the “Long term stability at 40°C/75%r.h. (12 weeks)” value in data set [1] is on record as “stable”. The Solubility worked out at 3800 µg/mL (≈ 8.74 mM) in data set [2] (0.01 N HCl ∼pH2.2, 15 min, listed as RBC free base form 1); 3400 µg/mL (≈ 7.82 mM) in data set [2] (0.01 N HCl ∼pH2.2, 1 h, listed as RBC free base form 1); 14200 µg/mL (≈ 32.7 mM) in data set [2] (20mM NaAc pH4.5, 1 h, listed as RBC free base form 1); 3600 µg/mL in data set [2] (50mM KH2PO4 pH6.5 + 2%TPGS, 15 min, listed as RBC free base form 1); 1500 µg/mL in data set [2] (50mM KH2PO4 pH6.5 + 2%TPGS, 1 h, listed as RBC free base form 1); 1500 µg/mL (≈ 3.45 mM) in data set [2] (50mM KH2PO4 pH6.8, 15 min, listed as RBC free base form 1). Further, the Solubility in data set [2] (50mM KH2PO4 pH6.8, 1 h, listed as RBC free base form 1) worked out at 1600 µg/mL (≈ 3.68 mM). Also, the solubility at 15 min in data set [2] (20 mM sodium acetate buffer, 37 °C, pH 4.5, aqueous buffer, thermodynamic from solid, 20mM NaAc pH4.5, 15 min) is 14200 µg/mL (≈ 32.7 mM). Moreover, the “Stability of solid form (in DVS)” value in data set [3] was “stable”.
Regarding `CN(C)C(=O)c1cc2cnc(Nc3ccc(N4CCNCC4)cn3)nc2n1C1CCCC1` [Form 4, 7-cyclopentyl-N,N-dimethyl-2-((5-(piperazin-1-yl)pyridin-2-yl)amino)-7H-pyrrolo[2,3-d]pyrimidine-6-carboxamide, reference compound], in data set [3], the “Stability of solid form (in DVS)” value is “Unstable at RT and ambient conditions”.
On to `CN(C)C(=O)c1cc2cnc(Nc3ccc(N4CCNCC4)cn3)nc2n1C1CCCC1` [Form 6, 7-cyclopentyl-N,N-dimethyl-2-((5-(piperazin-1-yl)pyridin-2-yl)amino)-7H-pyrrolo[2,3-d]pyrimidine-6-carboxamide], for which the “Long term stability at 40°C/75%r.h. (4 weeks)” value in data set [1] is listed as “stable”. In addition, in data set [1], the “Long term stability at 40°C/75%r.h. (12 weeks)” value was “stable”. For the same compound, the Solubility in data set [2] (0.01 N HCl ∼pH2.2, 15 min, listed as RBC free base form 6) stood at 400 µg/mL (≈ 0.92 mM); in data set [2] (0.01 N HCl ∼pH2.2, 1 h, listed as RBC free base form 6) it was 200 µg/mL (≈ 0.46 mM); in data set [2] (20mM NaAc pH4.5, 15 min, listed as RBC free base form 6) it was 12200 µg/mL (≈ 28.1 mM); in data set [2] (20mM NaAc pH4.5, 1 h, listed as RBC free base form 6), 9700 µg/mL (≈ 22.3 mM); in data set [2] (50mM KH2PO4 pH6.5 + 2%TPGS, 15 min, listed as RBC free base form 6), 2800 µg/mL; in data set [2] (50mM KH2PO4 pH6.5 + 2%TPGS, 1 h, listed as RBC free base form 6) it was 2400 µg/mL. In addition, the Solubility in data set [2] (50mM KH2PO4 pH6.8, 15 min, listed as RBC free base form 6) is 1200 µg/mL (≈ 2.76 mM); in data set [2] (50mM KH2PO4 pH6.8, 1 h, listed as RBC free base form 6), 500 µg/mL (≈ 1.15 mM). In addition, in data set [3], the “Stability of solid form (in DVS)” value is reported as “stable”.
On to `CN(C)C(=O)c1cc2cnc(Nc3ccc(N4CCNCC4)cn3)nc2n1C1CCCC1` [Form 7, 7-cyclopentyl-N,N-dimethyl-2-((5-(piperazin-1-yl)pyridin-2-yl)amino)-7H-pyrrolo[2,3-d]pyrimidine-6-carboxamide], for which, in data set [1], the “Long term stability at 40°C/75%r.h. (4 weeks)” value is “stable”. For the same compound, the “Long term stability at 40°C/75%r.h. (12 weeks)” value in data set [1] is reported as “stable”. Further, the Solubility worked out at 3100 µg/mL (≈ 7.13 mM) in data set [2] (0.01 N HCl ∼pH2.2, 15 min, listed as RBC free base form 7); 3000 µg/mL (≈ 6.9 mM) in data set [2] (0.01 N HCl ∼pH2.2, 1 h, listed as RBC free base form 7); 11300 µg/mL (≈ 26 mM) in data set [2] (20mM NaAc pH4.5, 15 min, listed as RBC free base form 7); 800 µg/mL in data set [2] (50mM KH2PO4 pH6.5 + 2%TPGS, 15 min, listed as RBC free base form 7); 800 µg/mL in data set [2] (50mM KH2PO4 pH6.5 + 2%TPGS, 1 h, listed as RBC free base form 7); 500 µg/mL (≈ 1.15 mM) in data set [2] (50mM KH2PO4 pH6.8, 15 min, listed as RBC free base form 7). In data set [2] (50mM KH2PO4 pH6.8, 1 h, listed as RBC free base form 7), this compound came in with a Solubility of 1100 µg/mL (≈ 2.53 mM). Further, the solubility at 1 h in data set [2] (20 mM sodium acetate buffer, 37 °C, pH 4.5, aqueous buffer, thermodynamic from solid, 20mM NaAc pH4.5, 1 h) is 11500 µg/mL (≈ 26.5 mM). Also, the “Stability of solid form (in DVS)” value in data set [3] is on record as “stable”.
For `CN(C)C(=O)c1cc2cnc(Nc3ccc(N4CCNCC4)cn3)nc2n1C1CCCC1` [Form 8, 7-cyclopentyl-N,N-dimethyl-2-((5-(piperazin-1-yl)pyridin-2-yl)amino)-7H-pyrrolo[2,3-d]pyrimidine-6-carboxamide], the “Long term stability at 40°C/75%r.h. (4 weeks)” value in data set [1] is recorded as “stable”. Further, the “Long term stability at 40°C/75%r.h. (12 weeks)” value in data set [1] is listed as “stable”. The Solubility in data set [2] (0.01 N HCl ∼pH2.2, 15 min, listed as RBC free base form 8) is 4000 µg/mL (≈ 9.2 mM); in data set [2] (0.01 N HCl ∼pH2.2, 1 h, listed as RBC free base form 8) it was 1000 µg/mL (≈ 2.3 mM); in data set [2] (50mM KH2PO4 pH6.5 + 2%TPGS, 15 min, listed as RBC free base form 8), 3900 µg/mL; in data set [2] (50mM KH2PO4 pH6.5 + 2%TPGS, 1 h, listed as RBC free base form 8) it was 900 µg/mL.
